Experimental data published in article PMC9576799, “Discovery of small molecule inhibitors that effectively disrupt IQGAP1-Cdc42 interaction in breast cancer cells” (Scientific Reports, 2022).

Assays:
[1] = test system: active (GTP-bound) Cdc42 in MDA-MB-231 cells; experiment: Assay of active Cdc42 (GST-WASP-GBD pulldown); type: cell-based, human; details: 50 µM for 2 h, 100 ng/mL EGF 10 min
Procedure: The GST-WASP-GBD (GTPase-binding-domain) has been described previously. Briefly, GST-WASP-GBD was generated by polymerase chain reaction, digested, and ligated into a pGEX-KG vector[52]. Following expression of the GST fusion protein in E. coli, purification was performed by glutathione-Sepharose affinity chromatography. MDA-MB-231 cells were grown in DMEM with 10% FBS to 60% confluence. After 2 h, 100 ng/mL EGF or vehicle was added for 10 min. After washing with 1xPBS, cells were lysed in lysis buffer (20 mM Hepes, pH 7.4, 150 mM NaCl, 1% NP-40, 20 mM NaF, and 20uM GTP, containing halt protease & phosphatase inhibitor cocktail (Thermo Scientific #1,861,281). Lysates were precleared with glutathione-Sepharose for 1 h at 4 °C and equal amounts of protein was incubated with either GST (control) or GST-WASP-GBD for 2 h at 4 °C. Complexes were collected with glutathione-Sepharose and washed 5× with lysis buffer. Bound proteins were resolved by SDS-PAGE and transferred to a polyvinylidene difluoride membrane. The membrane was cut immediately below the 37 kDa molecular weight marker. The top portion of the membrane was discarded and the bottom portion was probed with anti-Cdc42 antibody (BD Transduction Laboratories #610929). Aliquots of whole cell lysate were processed in parallel. […] The intensities of the Cdc42 and tubulin bands were quantified using Image Studio (LI-COR Biosciences).

[2] = test system: filopodia in MDA-MB-231 cells; experiment: Filopodia quantification by confocal microscopy (FiloQuant); type: cell-based, human; details: 50 μM 2 h, EGF-stimulated
Procedure: MDA-MB231 cells were cultured in 24-well plates containing glass coverslips. When 60% confluent, cells were serum starved for 16 h, preincubated with 50 μM compound NCGC00131308 for 2 h, then incubated with 100 ng/mL epidermal growth factor (EGF) or vehicle for 10 min. Cells were fixed with 4% PFA and stained with Alexa Fluor 488 Phalloidin (Invitrogen™#A12379) and Hoechst 33342 (BD Biosciences #561908) to visualize F-actin and DNA, respectively. Coverslips were mounted with ProLong glass antifade mounting medium (Invitrogen), then imaged with a Zeiss LSM880 confocal microscope using a 63× objective lens. Cells and filopodia were segmented using FIJI/ImageJ[49]. Individual filopodia were segmented using the FiloQuant FIJI plugin[50]. Cells were segmented by Voronoi tessellation using Hoechst 33342 stained nuclei as seed points. The segmented images were quantified using the scikit-image Python package. The following geometric and spatial parameters of the filopodia were quantified: (1) the branch length of each filopodial segment, (2) cumulative area of each segment, (3) eccentricity, defined as the […], and (4) the number of filopodial segments per unit exposed cell membrane. Further data handling and plotting were done using the tidyverse R package. At least 200 cells were analyzed for each condition.

Structure (SMILES) | effect on EGF-induced active (GTP-) Cdc42 [1] | filopodia area [2] | filopodia length [2] | filopodia shape (eccentricity) [2] | number of filopodia per cell [2]
CCN1CCN(c2ncc3c(n2)CCN(Cc2cc(Br)cs2)C3)CC1 [NCGC00131308] | abrogated the increase in GTP-Cdc42 induced by EGF | significantly decreased | significantly decreased | reduced eccentricity | significantly decreased
CCc1ccccc1Nc1ncnc2c1cnn2-c1ccc(Cl)cc1 [NCGC00138812] | did not appreciably reduce activation of Cdc42 by EGF |  |  |  | 
